The source of these data is US11952365B2, “Anti-viral compounds” (Aligos Therapeutics, Inc., priority 2020, dated 2024).

In data set [1] the target is T1, human cathepsin L (Homo sapiens, UniProt P07711).
T1 construct: purchased R&D Systems
Kind of data set: cathepsin L assay. The conditions noted are these: 10 pM human cathepsin L, Z-FR-AMC 2 μM. Format: biochemical. In short, it runs like this:
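Human cathepsin L at 10 pM was preincubated 30 min with compound, then reaction started with Z-FR-AMC (2 μM final). Fluorescence (355/460 nm) read every 2 min for 30 min; IC50 from four-parameter curve fit.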

Data set [2] deals with 3CLpro (Severe acute respiratory syndrome coronavirus 2, UniProt P0DTD1). Kind of data set: SARS-CoV-2 3CLpro protease assay (duplex, SAMDI-MS). It counts as biochemical. On the set-up: For the duplex assay, 3CLpro and HRV3C was added. The conditions noted are these: 3CLpro, 30 mins preincubation, class symbols; read-out: SARS-Cov-2 IC50.
A short description of data set [3]: in vitro. To be noted: African green monkey, VeroE6 + CP (CC50), Vero E6-eGFP cells with CP-100356, absence of virus, MTS; numeric bounds.
Data set [4] in a line: Cytotoxicity plates without OC43 virus (cell-titer-glo). It counts as cell-based, human. To be noted: human; HeLa cells without OC43 virus, class symbols. In short, it runs like this:
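HeLa cells seeded overnight, then treated with serially diluted compounds in 2% FBS EMEM, uninfected, in parallel with the OC43 antiviral plates. Incubated 6 days at 33 °C; viability read by CellTiter-Glo luminescence.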

Data set [5] relates to SARS-CoV-2-GHB-03021/2020. Put plainly: SARS-CoV-2 Infection Model in Huh7 Cells. Format: cell-based. The conditions noted are these: Severe acute respiratory syndrome coronavirus 2, Huh-7, 96 h, SARS-CoV-2, day 4 p.i., MTS.
Data set [6] deals with human beta-coronavirus OC43. Kind of data set: microbe, parasite or virus in culture. Format: cell-based. The conditions noted are these: Betacoronavirus 1, OC43, HeLa, 144 h.
A short description of data set [7]: in vitro. The conditions noted are these: human.
The test system of data set [8] is SARS-CoV-2-GHB-03021/2020. Put plainly: microbe, parasite or virus in culture. To be noted: Severe acute respiratory syndrome coronavirus 2, Vero C1008, 96 h; read-out: VeroE6 + CP (EC50). Format: cell-based.
For data set [9], the target named is HRV3C (Human rhinovirus 14, UniProt P03303). Kind of data set: HRV3C protease assay (duplex, SAMDI-MS). Format: biochemical, HRV. The conditions noted are these: 30 mins preincubation. A digest of the protocol:
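Enzyme preincubated 30 min with compound at ambient temperature, then both biotinylated peptide substrates added (duplex with 3CLpro); 30 min reaction quenched with 0.5% formic acid (final). Product read by SAMDI-MS as product/internal-standard AUC ratio; IC50 from four-parameter fit.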

The mark [10] stands for this setting: OC43 in HeLa cells, 6 days at 33° C., class symbols, read-out: EC50.
[11] abbreviates: HRV3C, bound, read-out: HRV IC50.
Where [12] appears, read: HRV3C, class symbols, read-out: HRV IC50.

Read-outs that look alike come from different tables or passages of the source.

As to `COc1cccc2sc(C(=O)N3C[C@@H]4CCC[C@@H]4[C@H]3C(=O)N[C@@H](C[C@@H]3CCNC3=O)C(=O)CO)cc12` [Compound 72, (1S,3aR,6aS)—N-[(2S)-4-hydroxy-3-oxo-1-[(3S)-2-oxopyrrolidin-3-yl]butan-2-yl]-2-(4-methoxy-1-benzothiophene-2-carbonyl)-hexahydro-1H-cyclopenta[c]pyrrole-1-carboxamide], the values for the IC50 in data set [1] (bound), in [2] and in data set [9] (setting [11]) were greater than 3.3 µM, 0.2 to 2 µM and greater than 10 µM, respectively. Besides, the CC50 in [3] and in [7] was greater than 100 µM throughout. This compound also had a CC50 at 6 days in [4] greater than 10 µM. For the same compound, the results for the EC50 in [5] (class symbols), in data set [6] (setting [10]) and in data set [8] were 1 to 10 µM, 0.1 to 1 µM and 1 to 10 µM, respectively.

Consider `O=C1NCC[C@H]1C[C@H](NC(=O)[C@@H]1[C@H]2CCC[C@H]2CN1C(=O)c1cc(-c2ccccc2)c[nH]1)C(=O)CO` [Compound 79, (1S,3aR,6aS)—N—((S)-4-hydroxy-3-oxo-1-((S)-2-oxopyrrolidin-3-yl)butan-2-yl)-2-(4-phenyl-1H-pyrrole-2-carbonyl)octahydrocyclopenta[c]pyrrole-1-carboxamide], for which the IC50 in data set [1] (class symbols) is no less than 10 µM; in [2] it was 0.02 to 0.2 µM; in [9] (HRV IC50, HRV3C, class symbols), 2 to 20 µM. Also, the CC50 in data set [3] and in [7] was greater than 50 µM each time. Further, in data set [4], the CC50 at 6 days was greater than 10 µM. Further, the results for the concentration giving a half-maximal response (EC50) in [5] (class symbols), in data set [6] and in data set [8] were 1 to 10 µM, 0.1 to 1 µM and 1 to 10 µM, respectively.

Turning to `O=C1NCC[C@H]1C[C@H](NC(=O)[C@@H]1[C@H]2CCC[C@H]2CN1C(=O)c1cc2ccsc2[nH]1)C(=O)CO` [Compound 80, (1S,3aR,6aS)—N-[(2S)-4-hydroxy-3-oxo-1-[(3S)-2-oxopyrrolidin-3-yl]butan-2-yl]-2-{6H-thieno[2,3-b]pyrrole-5-carbonyl}-hexahydro-1H-cyclopenta[c]pyrrole-1-carboxamide], the IC50 was no less than 10 µM in data set [1] (class symbols); 0.02 to 0.2 µM in [2]; 2 to 20 µM in data set [9] (HRV IC50, HRV3C, class symbols). The CC50 in [3] and in [7] was greater than 50 µM each time. Also, in [4], the CC50 at 6 days was greater than 10 µM. Besides, the concentration for a half-maximal effect (EC50) in data set [5] (class symbols), in data set [6] and in data set [8] was 1 to 10 µM each time.

With `COc1ccc2[nH]c(C(=O)N3C[C@@H]4CCC[C@@H]4[C@H]3C(=O)N[C@@H](C[C@@H]3CCNC3=O)C(=O)CO)cc2c1OC` [Compound 81, (1S,3aR,6aS)-2-(4,5-dimethoxy-1H-indole-2-carbonyl)-N-[(2S)-4-hydroxy-3-oxo-1-[(3S)-2-oxopyrrolidin-3-yl]butan-2-yl]-hexahydro-1H-cyclopenta[c]pyrrole-1-carboxamide], the values for the IC50 in data set [1] (class symbols), in [2] and in [9] (setting [12]) were no less than 10 µM, 0.02 to 0.2 µM and 2 to 20 µM, respectively. The CC50 in [3] and in data set [7] was greater than 50 µM each time. The CC50 at 6 days in [4] is greater than 10 µM. Also, the EC50 in data set [5] (class symbols) was in the range of 10 to 100 µM; in data set [6] (setting [10]), 1 to 10 µM; in data set [8] it was 1 to 10 µM.

For the compound `O=C1NCC[C@H]1C[C@H](NC(=O)[C@@H]1[C@H]2CCC[C@H]2CN1C(=O)c1cc(S(=O)(=O)c2ccccc2)c[nH]1)C(=O)CO` [Compound 82, (1S,3aR,6aS)-2-[4-(benzenesulfonyl)-1H-pyrrole-2-carbonyl]-N-[(2S)-4-hydroxy-3-oxo-1-[(3S)-2-oxopyrrolidin-3-yl]butan-2-yl]-hexahydro-1H-cyclopenta[c]pyrrole-1-carboxamide], the results for the IC50 in data set [1] (class symbols), in data set [2] and in data set [9] (setting [12]) were no less than 10 µM, 0.02 to 0.2 µM and 2 to 20 µM, respectively. Further, the CC50 in data set [3] and in data set [7] was greater than 50 µM throughout. The compound further displayed a CC50 at 6 days in data set [4] greater than 10 µM. Moreover, the half-maximal effective concentration (EC50) in data set [5] (numeric bounds) was greater than 50 µM; in [6] (OC43 in HeLa cells, 6 days at 33° C., bound, read-out: EC50), greater than 10 µM; in data set [8], 10 to 100 µM.

`O=C1NCC[C@H]1C[C@H](NC(=O)[C@@H]1[C@H]2CCC[C@H]2CN1C(=O)c1cc2c([nH]1)CCCC2)C(=O)CO` [Compound 83, (1S,3aR,6aS)—N-[(2S)-4-hydroxy-3-oxo-1-[(3S)-2-oxopyrrolidin-3-yl]butan-2-yl]-2-(4,5,6,7-tetrahydro-1H-indole-2-carbonyl)-hexahydro-1H-cyclopenta[c]pyrrole-1-carboxamide]: the IC50 in data set [1] (class symbols) is no less than 10 µM; in [2] it was 0.02 to 0.2 µM; in data set [9] (setting [11]), greater than 10 µM. For the same compound, the CC50 in data set [3] and in data set [7] was greater than 50 µM each time. The CC50 at 6 days in data set [4] is greater than 10 µM. Besides, the figures for the EC50 in data set [5] (class symbols), in data set [6] (setting [10]) and in data set [8] were less than 1 µM, 0.1 to 1 µM and less than 1 µM, respectively.

As to `O=C(c1ccccc1)c1c[nH]c(C(=O)N2C[C@@H]3CCC[C@@H]3[C@H]2C(=O)N[C@@H](C[C@@H]2CCNC2=O)C(=O)CO)c1` [Compound 84, (1S,3aR,6aS)-2-(4-benzoyl-1H-pyrrole-2-carbonyl)-N-[(2S)-4-hydroxy-3-oxo-1-[(3S)-2-oxopyrrolidin-3-yl]butan-2-yl]-hexahydro-1H-cyclopenta[c]pyrrole-1-carboxamide], the IC50 in data set [1] (class symbols) is no less than 10 µM; in data set [2], 0.02 to 0.2 µM; in data set [9] (setting [12]), 2 to 20 µM. Besides, the CC50 in [3] and in data set [7] was greater than 50 µM throughout. For the same compound, in [4], the CC50 at 6 days was greater than 10 µM. The EC50 is greater than 50 µM in data set [5] (numeric bounds), 1 to 10 µM in data set [6] (setting [10]) and 1 to 10 µM in data set [8].

As to `CCOC(=O)c1cc(C(=O)N2C[C@@H]3CCC[C@@H]3[C@H]2C(=O)N[C@@H](C[C@@H]2CCNC2=O)C(=O)CO)[nH]c1C` [Compound 85, ethyl 5-[(1S,3aR,6aS)-1-{[(2S)-4-hydroxy-3-oxo-1-[(3S)-2-oxopyrrolidin-3-yl]butan-2-yl]carbamoyl}-hexahydro-1H-cyclopenta[c]pyrrole-2-carbonyl]-2-methyl-1H-pyrrole-3-carboxylate], the IC50 is no less than 10 µM in data set [1] (class symbols), 0.02 to 0.2 µM in data set [2] and 2 to 20 µM in data set [9] (setting [12]). Besides, the CC50 in data set [3] and in data set [7] was greater than 50 µM each time. The CC50 at 6 days in data set [4] is greater than 10 µM. Moreover, the EC50 in data set [5] (class symbols) is 10 to 100 µM; in data set [6] (setting [10]), 1 to 10 µM; in data set [8] it was 1 to 10 µM.

For the compound `CC(=O)c1c[nH]c(C(=O)N2C[C@@H]3CCC[C@@H]3[C@H]2C(=O)N[C@@H](C[C@@H]2CCNC2=O)C(=O)CO)c1` [Compound 86, (1S,3aR,6aS)-2-(4-acetyl-1H-pyrrole-2-carbonyl)-N-[(2S)-4-hydroxy-3-oxo-1-[(3S)-2-oxopyrrolidin-3-yl]butan-2-yl]-hexahydro-1H-cyclopenta[c]pyrrole-1-carboxamide], the results for the 50% inhibitory concentration (IC50) in data set [1] (class symbols), in data set [2] and in data set [9] (setting [12]) were no less than 10 µM, 0.02 to 0.2 µM and 2 to 20 µM, respectively. The CC50 in [3] and in data set [7] was greater than 50 µM each time. Moreover, in [4], the CC50 at 6 days is greater than 10 µM. The figures for the EC50 in data set [5] (class symbols), in data set [6] (setting [10]) and in data set [8] were 10 to 100 µM, 1 to 10 µM and 10 to 100 µM, respectively.

Regarding `O=C1NCC[C@H]1C[C@H](NC(=O)[C@@H]1[C@H]2CCC[C@H]2CN1C(=O)c1cc2c(OC(F)F)cccc2[nH]1)C(=O)CO` [Compound 87, (1S,3aR,6aS)-2-[4-(difluoromethoxy)-1H-indole-2-carbonyl]-N-[(2S)-4-hydroxy-3-oxo-1-[(3S)-2-oxopyrrolidin-3-yl]butan-2-yl]-hexahydro-1H-cyclopenta[c]pyrrole-1-carboxamide], the figures for the IC50 in [1] (class symbols), in data set [2] and in data set [9] (setting [12]) were no less than 10 µM, less than 0.02 µM and 2 to 20 µM, respectively. Also, the CC50 in data set [3] is greater than 100 µM; in data set [7], greater than 10 µM. Besides, the CC50 at 6 days in data set [4] is greater than 10 µM. For the same compound, the EC50 is 1 to 10 µM in data set [5] (class symbols), less than 0.1 µM in [6] (setting [10]) and less than 1 µM in [8].
